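Five concentrations, 48 hours, 96-well plates. TGI marks complete inhibition of growth.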 A value given as a limit tells only on which side of the number the result lay.

The source of these data is PubChem BioAssay (NCI).

Common to all, as to test: growth of human tumour cells (NCI), 48 h
The subject of test [1] is SF-295 CNS.
Test [2] deals with SK-MEL-2 melanoma.
The subject of test [3] is CCRF-CEM leukemia.
The subject of test [4] is SN12C renal.
The subject of test [5] is NCI-H226 lung.
In test [6] the test system is SNB-19 CNS.
In test [7] the test system is SF-268 CNS.
Test [8] has as its system RPMI-8226 leukemia.
The subject of test [9] is 786-0 renal.

As for `COc1ccc2oc(-c3ccc(OC)c(OC)c3OC)cc(=O)c2c1`, the TGI in [1] is over 100 µM; in test [2], over 100 µM; in test [3], over 100 µM; in test [4], over 100 µM; in [5], 81.1 µM; in test [6] it was over 100 µM. The TGI is over 100 µM in test [7], 43 µM in [8] and over 100 µM in [9].
Turning to `c1ccc(SC23C4C5C6C4C2C6C53)nc1` (configuration not stated), the TGI in test [1], in test [2], in test [3], in test [4], in test [5] and in test [6] was over 100 µM each time. The TGI was over 31.6 µM in test [7], over 54 µM in test [8] and over 100 µM in [9].
Regarding `Cc1nc(/C=C2\C(=O)C=Cc3ccccc32)c(O)o1`, the TGI in [1], in test [2], in test [3], in test [4], in test [6] and in [7] was over 100 µM each time. Further, the TGI in [8] and in test [9] was over 100 µM each time.
As to `CCOc1ccc(NCC2CC/C(=C\c3ccccc3OC)C2=O)cc1` (configuration not stated), the TGI in test [1] worked out at 32.3 µM; in test [2] it was 35.2 µM; in [3] it was 7.22 µM; in test [4], 19.4 µM; in test [5], 34.1 µM; in test [6], 30 µM. For the same molecule, the TGI in [7] was 20.8 µM; in [8], 3.91 µM; in [9], 8.3 µM.
For `COC(=O)/C(C#N)=C(\N)C(Cl)(Cl)Cl`, the TGI is 19.4 µM in test [1]; 87.2 µM in [2]; 2.67 µM in [3]; 12.7 µM in test [4]; over 100 µM in test [6]; 14.7 µM in test [7]. The TGI in test [8] is 6.75 µM; in [9] it was 14.4 µM.
With `Cc1ccc(S(=O)(=O)OC(COC(=O)c2ccccc2)C(OS(=O)(=O)c2ccc(C)cc2)C(OS(=O)(=O)c2ccc(C)cc2)C(COC(=O)c2ccccc2)OS(=O)(=O)c2ccc(C)cc2)cc1` (configuration not stated), the TGI in test [1], in test [2], in [3], in [4], in test [6] and in [7] was over 100 µM in each case. In addition, the TGI in test [8] and in test [9] was over 100 µM each time.
On to `COc1cc(C(C)c2cc3c(cc2OCCNC(=O)COc2cc4c(cc2C(C)c2cc(OC)c(OC)c(OC)c2)OCO4)OCO3)cc(OC)c1OC` (configuration not stated), for which the TGI in [1], in [2], in test [3], in [4], in test [5] and in test [6] was over 100 µM in each case. Also, the TGI in [7] and in [9] was over 100 µM in each case.
In the case of `Cc1cc(C)c(C(=O)O)c(SSc2cc(C)cc(C)c2C(=O)O)c1`, the TGI in [1], in [2], in test [3], in test [4], in [5] and in [6] was over 100 µM in each case. Also, the TGI in test [7] and in test [9] was over 100 µM each time.
Take `CCOC(=O)C(Cc1ccccc1)NC(=O)c1[nH]cnc1/N=N/N(C)C` (configuration not stated): the TGI in [1], in test [2], in [3], in test [4], in [5] and in test [6] was over 100 µM in each case. Besides, the TGI in test [7], in test [8] and in test [9] was over 100 µM each time.
Regarding `O=C1CNC(=O)c2[nH]cnc2N1`, the TGI in test [1], in test [3], in [4], in [5], in test [6] and in test [7] was over 100 µM throughout. Further, the TGI in test [8] and in test [9] was over 100 µM throughout.
With `C=CCC1(C(=O)OC(C)(C)C)C(OC)=C(C(=O)OC(C)(C)C)C2C1C(C(=O)OC(C)(C)C)=C(OC)C2(CC=C)C(=O)OC(C)(C)C` (configuration not stated), the TGI in test [1], in test [2], in test [3], in [4], in test [5] and in test [6] was over 100 µM throughout. In addition, the TGI in [7], in test [8] and in test [9] was over 100 µM in each case.
Turning to `CC1=NOC(=O)/C1=C/c1ccc([N+](=O)[O-])cc1`, the TGI in test [1], in test [2], in test [3], in [4], in test [5] and in test [6] was over 100 µM throughout. Also, the TGI in test [7] and in test [9] was over 100 µM in each case.
Turning to `COC(=O)C(CC(=O)Nc1ccc(Cl)c(Cl)c1)C(=O)C(=O)Nc1ccc(Cl)c(Cl)c1` (configuration not stated), the TGI in [1], in test [2], in [3], in test [4], in [5] and in [6] was over 100 µM each time. For the same molecule, the TGI in [7], in [8] and in [9] was over 100 µM in each case.
For the molecule `COc1ccc(C(=O)CC2=Nc3nnc(CCCCCCCc4nnc5n4C(=O)C(CC(=O)c4ccc(OC)cc4)=N5)n3C2=O)cc1`, the TGI in test [1], in [3], in test [4], in test [5], in [6] and in [7] was over 100 µM each time. The TGI in [8] and in [9] was over 100 µM throughout.
Regarding `O=S(=O)(N=NC=C1c2ccccc2N(O)c2ccccc21)c1ccc(Cl)cc1`, the TGI in [1], in [2], in test [3], in test [4], in test [5] and in [6] was over 100 µM each time. Moreover, the TGI in test [7], in test [8] and in test [9] was over 100 µM in each case.
